Assay results published in patent publication US6737383B1, “Herbicidal oxadiazolidines” (priority 1999, dated 2004).

Tests used:
pigweed = experiment: Test B pre/postemergence pigweed; type: in vivo, Amaranthus retroflexus; conditions: for Plant response rating, Redroot pigweed: scale of 0 to 10 where 0 is no effect and 10 is complete control
Method in brief: (§1)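 Herbicidal effect was estimated by eye on a ten-point control scale after plants spent twelve to sixteen days in a greenhouse following soil or foliar treatment. Foliar sprays targeted plants at one to four leaves; all doses were formulated in a non-phytotoxic solvent with surfactant.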

giant foxtail = experiment: Test B pre/postemergence giant foxtail; type: in vivo, Setaria faberii
Method in brief: as §1

velvetleaf = experiment: Test B pre/postemergence velvetleaf; type: in vivo, Abutilon theophrasti; conditions: for Plant response rating, Velvetleaf: scale of 0 to 10 where 0 is no effect and 10 is complete control
Method in brief: as §1

surinam grass = experiment: Test B pre/postemergence surinam grass; type: in vivo, Brachiaria decumbens
Method in brief: as §1

crabgrass = experiment: Test B pre/postemergence crabgrass; type: in vivo, Digitaria sanguinalis
Method in brief: as §1

purple nutsedge = experiment: Test B pre/postemergence purple nutsedge; type: in vivo, Cyperus rotundus; conditions: for Plant response rating, Nutsedge: scale of 0 to 10 where 0 is no effect and 10 is complete control
Method in brief: as §1

rice = experiment: Test B flood test rice; type: in vivo, Oryza sativa
Method in brief: (§2)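 Plants were grown to the 2-leaf stage before treatment with test chemical, then held in a greenhouse for twelve to sixteen days. Injury was visually rated against untreated controls on a 0–10 scale, where 0 is no effect and 10 is complete control.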

wild oat = experiment: Test B pre/postemergence wild oat; type: in vivo, Avena fatua; conditions: for Plant response rating, Wild oats: scale of 0 to 10 where 0 is no effect and 10 is complete control
Method in brief: as §1

corn = experiment: Test B pre/postemergence corn; type: in vivo, Zea mays
Method in brief: as §1

cocklebur = experiment: Test B pre/postemergence cocklebur; type: in vivo, Xanthium strumarium
Method in brief: as §1

soybean = experiment: Test B pre/postemergence soybean; type: in vivo, Glycine max; conditions: for Plant response rating, Soybean: scale of 0 to 10 where 0 is no effect and 10 is complete control
Method in brief: as §1

sugar beet = experiment: Test B pre/postemergence sugar beet; type: in vivo, Beta vulgaris; conditions: for Plant response rating, Sugarbeets: scale of 0 to 10 where 0 is no effect and 10 is complete control
Method in brief: as §1

bedstraw = experiment: Test B pre/postemergence bedstraw; type: in vivo, Galium aparine; conditions: Postemergence
Method in brief: as §1

bamyardgrass = experiment: Test B flood test barnyardgrass; type: in vivo, Echinochloa crus-galli
Method in brief: as §2

smallflower flatsedge = experiment: Test B flood test smallflower flatsedge; type: in vivo, Cyperus difformis
Method in brief: as §2

blackgrass = experiment: Test B pre/postemergence blackgrass; type: in vivo, Alopecurus myosuroides
Method in brief: as §1

[1] = Postemergence, Rate 250 g/ha, scale 0 to 10
[2] = Preemergence, Rate 250 g/ha, scale 0 to 10, 0 is no effect, 10 is complete control
[3] = Preemergence, Rate 500 g/ha, scale 0 to 10, 0 is no effect, 10 is complete control
[4] = Rate 62 g/ha, Postemergence, scale 0 to 10 (0 no effect, 10 complete control)
[5] = Rate 125 g/ha, Postemergence, scale 0 to 10, 0 is no effect, 10 is complete control
[6] = Postemergence, Rate 500 g/ha, scale of 0 to 10 where 0 is no effect and 10 is complete control
[7] = Preemergence, Rate 62 g/ha, scale of 0 to 10 where 0 is no effect and 10 is complete control
[8] = Preemergence, Rate 125 g/ha, scale of 0 to 10 where 0 is no effect and 10 is complete control
[9] = Rate 62 g/ha, flood test species, Pre-emergence, visual evaluation after twelve to sixteen days
[10] = Rate 125 g/ha, under heading Pre-emergence, flood test species, visual evaluation after twelve to sixteen days
[11] = Rate 250 g/ha, Pre-emergence (flood test species), scale 0 to 10, 0 is no effect, 10 is complete control
[12] = Rate 500 g/ha, Pre-emergence, flood test species, scale 0 to 10 (0 no effect, 10 complete control)

SMILES: CC(C)N(C(=O)n1oc(=O)n(CO)c1=O)c1ccc(F)cc1 [Compound 470]
- Redroot pigweed plant response rating (pigweed; [1]): 0
- Plant response rating, Redroot pigweed (pigweed; Preemergence, Rate 62 g/ha): 0
- Plant response rating, Redroot pigweed (pigweed; Preemergence, Rate 125 g/ha): 0
- Redroot pigweed plant response rating (pigweed; [2]): 0
- Redroot pigweed plant response rating (pigweed; [3]): 0
- Redroot pigweed plant response rating (pigweed; [4]): 0
- Redroot pigweed plant response rating (pigweed; [5]): 0
- Giant foxtail plant response rating (giant foxtail; [1]): 0
- Giant foxtail plant response rating (giant foxtail; [6]): 0
- Plant response rating, Giant foxtail (giant foxtail; [7]): 0
- Plant response rating, Giant foxtail (giant foxtail; [8]): 0
- Giant foxtail plant response rating (giant foxtail; [2]): 0
- Giant foxtail plant response rating (giant foxtail; [3]): 3
- Giant foxtail plant response rating (giant foxtail; [4]): 0
- Giant foxtail plant response rating (giant foxtail; [5]): 0
- Velvetleaf plant response rating (velvetleaf; [1]): 0
- Plant response rating, Velvetleaf (velvetleaf; Preemergence, Rate 62 g/ha): 0
- Plant response rating, Velvetleaf (velvetleaf; Preemergence, Rate 125 g/ha): 0
- Velvetleaf plant response rating (velvetleaf; [2]): 0
- Velvetleaf plant response rating (velvetleaf; [3]): 0
- Velvetleaf plant response rating (velvetleaf; [4]): 0
- Velvetleaf plant response rating (velvetleaf; [5]): 0
- B. signalgrass plant response rating (surinam grass; Postemergence, Rate 250 g/ha, scale 0 to 10, 0 no effect, 10 complete control): 0
- B. signalgrass plant response rating (surinam grass; [6]): 0
- Plant response rating, B. signalgrass (surinam grass; [7]): 0
- Plant response rating, B. signalgrass (surinam grass; [8]): 0
- B. signalgrass plant response rating (surinam grass; [2]): 4
- B. signalgrass plant response rating (surinam grass; [3]): 6
- B. signalgrass plant response rating (surinam grass; [4]): 0
- B. signalgrass plant response rating (surinam grass; [5]): 0
- Crabgrass plant response rating (crabgrass; [1]): 0
- Crabgrass plant response rating (crabgrass; [6]): 0
- Plant response rating, Crabgrass (crabgrass; [7]): 1
- Plant response rating, Crabgrass (crabgrass; [8]): 7
- Crabgrass plant response rating (crabgrass; [2]): 8
- Crabgrass plant response rating (crabgrass; [3]): 9
- Crabgrass plant response rating (crabgrass; [4]): 0
- Crabgrass plant response rating (crabgrass; [5]): 0
- Nutsedge plant response rating (purple nutsedge; [1]): 0
- Plant response rating, Nutsedge (purple nutsedge; Preemergence, Rate 62 g/ha): 0
- Plant response rating, Nutsedge (purple nutsedge; Preemergence, Rate 125 g/ha): 0
- Nutsedge plant response rating (purple nutsedge; [2]): 0
- Nutsedge plant response rating (purple nutsedge; [3]): 0
- Nutsedge plant response rating (purple nutsedge; [4]): 0
- Nutsedge plant response rating (purple nutsedge; [5]): 0
- Plant response rating, Rice (0 to 10 scale, 0 is no effect, 10 is complete control) (rice; [9]): 0
- Rice plant response rating (0 to 10 scale, 0 is no effect, 10 is complete control) (rice; [10]): 0
- Rice plant response rating (rice; [11]): 0
- Rice plant response rating (rice; [12]): 0
- Wild oats plant response rating (wild oat; [1]): 0
- Plant response rating, Wild oats (wild oat; Preemergence, Rate 62 g/ha): 0
- Plant response rating, Wild oats (wild oat; Preemergence, Rate 125 g/ha): 0
- Wild oats plant response rating (wild oat; [2]): 0
- Wild oats plant response rating (wild oat; [3]): 3
- Wild oats plant response rating (wild oat; [4]): 0
- Wild oats plant response rating (wild oat; [5]): 0
- Corn plant response rating (corn; [1]): 0
- Corn plant response rating (corn; [6]): 0
- Plant response rating, Corn (corn; [7]): 0
- Plant response rating, Corn (corn; [8]): 0
- Corn plant response rating (corn; [2]): 0
- Corn plant response rating (corn; [3]): 0
- Corn plant response rating (corn; [4]): 0
- Corn plant response rating (corn; [5]): 0
- Cocklebur plant response rating (cocklebur; [1]): 0
- Cocklebur plant response rating (cocklebur; [6]): 0
- Plant response rating, Cocklebur (cocklebur; [7]): 0
- Plant response rating, Cocklebur (cocklebur; [8]): 0
- Cocklebur plant response rating (cocklebur; [2]): 0
- Cocklebur plant response rating (cocklebur; [3]): 0
- Cocklebur plant response rating (cocklebur; [4]): 0
- Cocklebur plant response rating (cocklebur; [5]): 0
- Soybean plant response rating (soybean; [1]): 1
- Plant response rating, Soybean (soybean; Preemergence, Rate 62 g/ha): 0
- Plant response rating, Soybean (soybean; Preemergence, Rate 125 g/ha): 0
- Soybean plant response rating (soybean; [2]): 0
- Soybean plant response rating (soybean; [3]): 0
- Soybean plant response rating (soybean; [4]): 0
- Soybean plant response rating (soybean; [5]): 0
- Sugarbeets plant response rating (sugar beet; [1]): 0
- Plant response rating, Sugarbeets (sugar beet; Preemergence, Rate 62 g/ha): 0
- Plant response rating, Sugarbeets (sugar beet; Preemergence, Rate 125 g/ha): 0
- Sugarbeets plant response rating (sugar beet; [2]): 0
- Sugarbeets plant response rating (sugar beet; [3]): 0
- Sugarbeets plant response rating (sugar beet; [4]): 0
- Sugarbeets plant response rating (sugar beet; [5]): 0
- Bedstraw plant response rating (bedstraw; Rate 62 g/ha, scale 0 to 10 (0 no effect, 10 complete control)): 0
- Bedstraw plant response rating (bedstraw; Rate 125 g/ha, scale 0 to 10, 0 is no effect, 10 is complete control): 0
- Plant response rating, Barnyardgrass (0 to 10 scale, 0 is no effect, 10 is complete control) (bamyardgrass; [9]): 0
- Barnyardgrass plant response rating (0 to 10 scale, 0 is no effect, 10 is complete control) (bamyardgrass; [10]): 0
- Barnyardgrass plant response rating (bamyardgrass; [11]): 0
- Barnyardgrass plant response rating (bamyardgrass; [12]): 0
- Plant response rating, S. Flatsedge (0 to 10 scale, 0 is no effect, 10 is complete control) (smallflower flatsedge; [9]): 0
- S. Flatsedge plant response rating (0 to 10 scale, 0 is no effect, 10 is complete control) (smallflower flatsedge; [10]): 0
- S. Flatsedge plant response rating (smallflower flatsedge; [11]): 0
- S. Flatsedge plant response rating (smallflower flatsedge; [12]): 0
- Blackgrass plant response rating (blackgrass; [1]): 0
- Blackgrass plant response rating (blackgrass; [6]): 0
- Plant response rating, Blackgrass (blackgrass; [7]): 0
- Plant response rating, Blackgrass (blackgrass; [8]): 0
- Blackgrass plant response rating (blackgrass; [2]): 7
- Blackgrass plant response rating (blackgrass; [4]): 0
- Blackgrass plant response rating (blackgrass; [5]): 0
